Earlier results on one compound are cited in US20240189323A1, “PREPARATION FOR ETHINYLESTRADIOL-CYCLODEXTRIN COMPLEX AND USE THEREOF” (NATIONAL RESEARCH INSTITUTE FOR FAMILY PLANNING, priority 2022, published 2024).

For this series the following is noted: background description.

On to `C#C[C@]1(O)CC[C@H]2[C@@H]3CCc4cc(O)ccc4[C@H]3CC[C@@]21C` [ethinylestradiol, 3-hydroxy-19-nor-17α-pregna-1,3,5(10)-trien-20-yn-17-ol], for which the solubility in water result was “almost insoluble in water”.
